# Measurements as given in ChEMBL document CHEMBL1153119, “Design and synthesis of orally-active and selective azaindane 5HT2c agonist for the treatment of obesity” (Bioorg Med Chem Lett, 2010).
# Activity calls are given as the source filed them. The rule behind the calls is not given here.
# How the values were obtained:
# [1] = biological target: T1, 5-hydroxytryptamine receptor 2C (Homo sapiens) (UniProt P28335); assay: Agonist activity against human 5HT2C receptor by FLIPR assay
# T1 sequence (whole entry): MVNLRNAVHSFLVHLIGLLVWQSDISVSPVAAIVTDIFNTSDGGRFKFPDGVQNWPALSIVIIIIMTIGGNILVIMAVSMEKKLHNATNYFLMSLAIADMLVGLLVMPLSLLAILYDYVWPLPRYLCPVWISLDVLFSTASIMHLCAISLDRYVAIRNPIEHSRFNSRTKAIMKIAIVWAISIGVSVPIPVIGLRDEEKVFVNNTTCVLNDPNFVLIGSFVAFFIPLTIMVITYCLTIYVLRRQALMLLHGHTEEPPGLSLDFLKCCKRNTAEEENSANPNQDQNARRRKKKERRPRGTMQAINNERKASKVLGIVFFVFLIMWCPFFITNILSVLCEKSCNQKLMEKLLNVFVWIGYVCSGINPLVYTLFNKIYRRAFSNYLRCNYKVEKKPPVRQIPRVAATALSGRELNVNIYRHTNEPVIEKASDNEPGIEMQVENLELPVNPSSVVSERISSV
# [2] = biological target: T2, 5-hydroxytryptamine receptor 2C (Homo sapiens, UniProt P28335); assay: Agonist activity against human 5HT2C receptor by FLIPR assay; format: functional
# T2 sequence (P28335 whole entry): T1 sequence (whole entry)
# [3] = biological target: T3, 5-hydroxytryptamine receptor 2A (Homo sapiens, UniProt P28223); assay: Agonist activity against human 5HT2A receptor by FLIPR assay; format: functional
# [4] = biological target: T3, 5-hydroxytryptamine receptor 2A; assay: Agonist activity against human 5HT2A receptor by FLIPR assay relative to 5HT; format: functional
# [5] = biological target: T4, 5-hydroxytryptamine receptor 2B (Homo sapiens, UniProt P41595); assay: Agonist activity against human 5HT2B receptor by FLIPR assay; format: functional
# [6] = biological target: T4, 5-hydroxytryptamine receptor 2B; assay: Agonist activity against human 5HT2B receptor by FLIPR assay relative to 5HT; format: functional
# [7] = biological target: 5-hydroxytryptamine receptor 2A (Rattus norvegicus, UniProt P14842); assay: Displacement of [125I]DOI from rat 5HT2A receptor expressed in mouse 3T3 cells; format: cell-based, NIH3T3
# [8] = biological target: T4, 5-hydroxytryptamine receptor 2B; assay: Displacement of [125I]DOI from human 5HT2B receptor expressed in CHO cells; format: cell-based
# [9] = biological target: T2, 5-hydroxytryptamine receptor 2C; assay: Antagonist activity against human 5HT2C receptor by FLIPR assay; format: functional
# [10] = biological target: T2, 5-hydroxytryptamine receptor 2C; assay: Displacement of [3H]5HT from human 5HT2C receptor expressed in mouse 3T3 cells by scintillation counting; format: cell-based, NIH3T3
# [11] = biological target: T2, 5-hydroxytryptamine receptor 2C; assay: Agonist activity against human 5HT2C receptor by GTPgammaS binding; format: functional
# [12] = biological target: T1, 5-hydroxytryptamine receptor 2C (Homo sapiens); assay: Agonist activity against human 5HT2C receptor by GTPgammaS binding relative to control; format: functional
# [13] = biological target: T1, 5-hydroxytryptamine receptor 2C (Homo sapiens); assay: Agonist activity against human 5HT2C receptor assessed as inositol phosphate accumulation; format: functional
# [14] = biological target: T3, 5-hydroxytryptamine receptor 2A; assay: Agonist activity against 5HT2A receptor assessed as inositol phosphate accumulation; format: functional
# [15] = biological target: T4, 5-hydroxytryptamine receptor 2B; assay: Agonist activity against 5HT2B receptor assessed as inositol phosphate accumulation; format: functional
# [16] = biological target: T3, 5-hydroxytryptamine receptor 2A; assay: Antagonist activity against 5HT2A receptor; format: functional
# [17] = biological target: T4, 5-hydroxytryptamine receptor 2B; assay: Antagonist activity against 5HT2B receptor; format: functional
# [18] = biological target: Voltage-gated inwardly rectifying potassium channel KCNH2 (Homo sapiens, UniProt Q12809); assay: Inhibition of human ERG channel
# [19] = test system: Rattus norvegicus; assay: Antiobesity activity in Sprague-Dawley rat model assessed as reduction in food intake at 100 mg/kg, po after 2 hrs; format: functional; parameters: scale not given: the % may be the effect or the level left
# [20] = Half life in rat microsomes at 0.3 mM; format: ADME, Microsome
# [21] = Intrinsic clearance in rat microsomes at 0.3 mM; format: ADME, Microsome
# [22] = Half life in rat hepatocyte at 1 mM; format: ADME, cell-based, Liver; details: hepatocytes
# [23] = Intrinsic clearance in rat hepatocyte at 1 mM; format: ADME, cell-based, Liver; details: hepatocytes
# [24] = Clearance in rat; format: ADME, organism-based; details: in vivo
# [25] = Half life in dog microsomes at 0.3 mM; format: ADME, Canis lupus familiaris, Microsome
# [26] = Intrinsic clearance in dog microsomes at 0.3 mM; format: ADME, Canis lupus familiaris, Liver, Microsome
# [27] = Half life in dog hepatocyte at 1 mM; format: ADME, Canis lupus familiaris, Liver; details: hepatocytes
# [28] = Intrinsic clearance in dog hepatocyte at 1 mM; format: ADME, tissue-based, Canis lupus familiaris, Liver; details: hepatocytes
# [29] = Clearance in dog; format: ADME, organism-based, Canis lupus familiaris; details: in vivo
# [30] = Half life in monkey microsomes at 0.3 mM; format: ADME, Macaca mulatta, Microsome; details: rhesus monkey
# [31] = Intrinsic clearance in monkey microsomes at 0.3 mM; format: ADME, Macaca mulatta, Microsome; details: rhesus monkey
# [32] = Half life in monkey hepatocyte at 1 mM; format: ADME, Macaca mulatta, Liver; details: rhesus monkey, hepatocytes
# [33] = Intrinsic clearance in monkey hepatocyte at 1 mM; format: ADME, tissue-based, Macaca mulatta, Liver; details: rhesus monkey, hepatocytes
# [34] = Clearance in monkey; format: ADME, organism-based, Macaca mulatta; details: rhesus monkey, in vivo
# [35] = Half life in human microsomes at 0.3 mM; format: ADME, Microsome
# [36] = Intrinsic clearance in human microsomes at 0.3 mM; format: ADME, Microsome
# [37] = Half life in human hepatocyte at 1 mM; format: ADME, cell-based, Liver; details: hepatocytes
# [38] = Intrinsic clearance in human hepatocyte at 1 mM; format: ADME, cell-based, Liver; details: hepatocytes
# [39] = Ratio of drug uptake in brain to plasma in rat; format: ADME, organism-based; details: in vivo
# [40] = Ratio of drug uptake in CSF to plasma in rat; format: ADME
# [41] = Ratio of drug uptake in CSF to free plasma in rat; format: ADME, organism-based; details: in vivo
# [42] = biological target: T1, 5-hydroxytryptamine receptor 2C (Homo sapiens); assay: Antagonist activity against 5HT2c receptor; format: functional
# T4 sequence (P41595 whole entry): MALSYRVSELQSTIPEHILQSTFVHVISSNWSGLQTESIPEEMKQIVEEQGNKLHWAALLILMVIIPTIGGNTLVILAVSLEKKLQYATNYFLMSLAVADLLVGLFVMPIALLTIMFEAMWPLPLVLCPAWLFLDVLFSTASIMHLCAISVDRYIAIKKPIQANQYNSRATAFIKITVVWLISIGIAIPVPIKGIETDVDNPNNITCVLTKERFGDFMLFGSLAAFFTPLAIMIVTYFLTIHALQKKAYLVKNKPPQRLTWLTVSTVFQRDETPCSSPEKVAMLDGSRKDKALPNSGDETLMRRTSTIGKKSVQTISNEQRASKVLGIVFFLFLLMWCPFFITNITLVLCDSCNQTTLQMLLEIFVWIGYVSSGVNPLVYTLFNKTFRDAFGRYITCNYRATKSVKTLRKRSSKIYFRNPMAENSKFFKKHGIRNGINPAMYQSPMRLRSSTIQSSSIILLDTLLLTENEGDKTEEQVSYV
# T3 sequence (P28223 whole entry): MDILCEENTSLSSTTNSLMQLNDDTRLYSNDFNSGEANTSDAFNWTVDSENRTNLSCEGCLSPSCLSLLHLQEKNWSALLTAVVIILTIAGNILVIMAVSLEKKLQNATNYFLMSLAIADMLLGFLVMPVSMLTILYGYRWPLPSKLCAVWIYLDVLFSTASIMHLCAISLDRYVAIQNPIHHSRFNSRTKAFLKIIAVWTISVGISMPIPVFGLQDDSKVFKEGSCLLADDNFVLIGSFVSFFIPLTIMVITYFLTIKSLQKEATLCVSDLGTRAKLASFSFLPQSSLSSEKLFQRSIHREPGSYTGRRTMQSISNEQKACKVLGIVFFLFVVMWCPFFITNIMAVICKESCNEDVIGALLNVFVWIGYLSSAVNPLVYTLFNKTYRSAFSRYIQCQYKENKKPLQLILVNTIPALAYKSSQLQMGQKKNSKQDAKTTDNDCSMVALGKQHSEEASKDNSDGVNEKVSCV
# Chain of 5-hydroxytryptamine receptor 2A (Rattus norvegicus, UniProt P14842) (P14842 whole entry): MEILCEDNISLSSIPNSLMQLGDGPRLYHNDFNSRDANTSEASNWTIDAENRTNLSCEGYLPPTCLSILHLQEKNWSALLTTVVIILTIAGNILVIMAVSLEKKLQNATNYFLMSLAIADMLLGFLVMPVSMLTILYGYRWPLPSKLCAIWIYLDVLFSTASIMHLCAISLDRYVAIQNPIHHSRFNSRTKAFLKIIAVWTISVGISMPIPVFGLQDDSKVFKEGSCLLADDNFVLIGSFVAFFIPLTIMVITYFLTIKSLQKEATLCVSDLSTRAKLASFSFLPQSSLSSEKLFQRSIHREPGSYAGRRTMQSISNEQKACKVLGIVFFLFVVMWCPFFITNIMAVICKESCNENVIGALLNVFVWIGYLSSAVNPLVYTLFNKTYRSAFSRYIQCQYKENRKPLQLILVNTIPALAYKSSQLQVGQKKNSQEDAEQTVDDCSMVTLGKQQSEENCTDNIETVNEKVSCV
# Chain of Voltage-gated inwardly rectifying potassium channel KCNH2 (Q12809 whole entry): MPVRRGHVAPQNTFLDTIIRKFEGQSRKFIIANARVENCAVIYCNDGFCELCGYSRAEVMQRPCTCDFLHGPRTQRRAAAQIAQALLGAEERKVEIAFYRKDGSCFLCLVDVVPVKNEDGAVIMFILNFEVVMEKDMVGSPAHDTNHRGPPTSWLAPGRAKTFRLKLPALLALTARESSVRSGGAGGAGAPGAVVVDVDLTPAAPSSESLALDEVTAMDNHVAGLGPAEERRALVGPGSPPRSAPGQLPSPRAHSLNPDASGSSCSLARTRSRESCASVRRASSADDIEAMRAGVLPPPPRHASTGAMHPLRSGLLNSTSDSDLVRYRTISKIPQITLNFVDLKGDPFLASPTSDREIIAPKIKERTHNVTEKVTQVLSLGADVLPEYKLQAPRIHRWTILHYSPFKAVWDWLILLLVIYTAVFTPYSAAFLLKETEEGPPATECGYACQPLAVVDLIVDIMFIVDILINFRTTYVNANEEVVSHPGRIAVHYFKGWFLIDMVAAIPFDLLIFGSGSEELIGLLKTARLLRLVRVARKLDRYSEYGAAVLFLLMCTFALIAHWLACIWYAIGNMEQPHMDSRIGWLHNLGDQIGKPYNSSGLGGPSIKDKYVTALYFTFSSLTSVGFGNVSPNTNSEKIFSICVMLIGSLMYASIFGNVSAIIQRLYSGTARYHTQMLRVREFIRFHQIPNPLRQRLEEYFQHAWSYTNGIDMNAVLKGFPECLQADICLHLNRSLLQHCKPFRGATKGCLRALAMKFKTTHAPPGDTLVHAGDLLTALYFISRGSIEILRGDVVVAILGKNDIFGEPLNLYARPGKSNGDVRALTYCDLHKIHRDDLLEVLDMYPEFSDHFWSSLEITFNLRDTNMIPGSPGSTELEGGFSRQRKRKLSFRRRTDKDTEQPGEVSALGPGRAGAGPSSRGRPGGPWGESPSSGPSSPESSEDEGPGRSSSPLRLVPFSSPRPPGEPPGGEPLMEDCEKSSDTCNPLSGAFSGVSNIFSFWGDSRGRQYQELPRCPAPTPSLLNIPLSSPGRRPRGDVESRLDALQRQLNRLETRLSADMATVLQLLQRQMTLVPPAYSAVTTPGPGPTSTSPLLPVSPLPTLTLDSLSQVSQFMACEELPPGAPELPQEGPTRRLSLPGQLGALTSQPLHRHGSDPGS
smiles,measurement,setting,value
c1ccc2c(c1)sc1c(N3CCNCC3)ncnc12,Activity,[1],31%
Clc1ccccc1OC1CCc2ccc(N3CCNCC3)nc21 (stereo not given),EC50,[2],0.1 nM
same,EC50,[3],236 nM
same,Activity,[4],75%
same,EC50,[5],187 nM
same,Activity,[6],50%
same,Ki,[7],3.8 nM
same,Ki,[8]; cho,Not Active
same,Activity,[1],93%
Cn1cnc2nc(OCc3ccccc3)nc(N3CCNCC3)c21,IC50,[9],> 500 nM
Fc1ccc(F)c(CO[C@H]2CCc3ccc(N4CCNCC4)nc32)c1,EC50,[2],1.4 nM
same,EC50,[3],1500 nM
same,Activity,[4],13%
same,EC50,[5],2700 nM
same,Activity,[6],18%
same,Ki,[7],15 nM
same,Ki,[8]; read-out: Ki,153 nM
same,Activity,[1],91%
Fc1cccc(O[C@H]2CCc3ccc(N4CCNCC4)nc32)c1,Ki,[10],3 nM
Cc1ccc(F)cc1CO[C@H]1CCc2ccc(N3CCNC[C@H]3C)nc21,EC50,[2],3.4 nM
same,IC50,[9],≤ 86 nM
same,EC50,[11],1.9 nM
same,EC50,[3],630 nM
same,EC50,[5],566 nM
same,Emax,[6],28%
same,Ki,[7],4.4 nM
same,Activity,[12],86%
same,Activity,[13],inactive
same,Activity,[14],inactive
same,EC50,[15],> 10000 nM
same,Kb,[16],62 nM
same,Kb,[17],4 nM
same,IC50,[18],3900 nM
same,Activity,[19],-74%
same,half-life,[20],2.2 min
same,CLint scaled,[21],1500 mL/min/kg
same,half-life,[22],4.7 min
same,CLint scaled,[23],400 mL/min/kg
same,clearance,[24],90 mL/min/kg
same,half-life,[25],24 min
same,CLint scaled,[26],59 mL/min/kg
same,half-life,[27],64 min
same,CLint scaled,[28],41 mL/min/kg
same,clearance,[29],34 mL/min/kg
same,half-life,[30],12 min
same,CLint scaled,[31],350 mL/min/kg
same,half-life,[32],53 min
same,CLint scaled,[33],43 mL/min/kg
same,clearance,[34],8.6 mL/min/kg
same,half-life,[35],44 min
same,CLint scaled,[36],20 mL/min/kg
same,half-life,[37],170 min
same,CLint scaled,[38],5.1 mL/min/kg
same,ratio,[39],3.4
same,Kp,[40],0.015
same,ratio,[41],0.5
same,Kb,[42],inactive
Cc1csc2c(OCc3cccc(Cl)c3)nc(N3CCNCC3)nc12,IC50,[9],126 nM
C[C@@H]1CNCCN1c1ccc2c(n1)[C@@H](OCc1cc(F)ccc1F)CC2,EC50,[2],1 nM
same,EC50,[3],1430 nM
same,Activity,[4],18%
same,Ki,[7],16 nM
same,Ki,[8]; read-out: Ki,83 nM
same,Activity,[1],96%
c1cc2c(nc1N1CCNCC1)CCCC2,EC50,[2],25 nM
same,EC50,[3],2200 nM
same,Activity,[4],60%
same,Activity,[6],Active
same,Ki,[7],21 nM
same,Ki,[8]; cho,Not Active
same,Activity,[1],93%
Clc1ccccc1O[C@H]1CCCc2ccc(N3CCNCC3)nc21,EC50,[2],10 nM
same,EC50,[3],70 nM
same,Activity,[4],93%
same,EC50,[5],397 nM
same,Ki,[7],0.7 nM
same,Ki,[8]; cho,Not Active
same,Activity,[1],97%
Cc1cc2c(N3CCNCC3)ncnc2o1,EC50,[2],660 nM
same,Activity,[1],45%
Clc1nc(N2CCNCC2)c2scc(-c3ccccc3)c2n1,IC50,[9],540 nM
Clc1cccc(COc2nc(N3CCNCC3)nc3sccc23)c1,EC50,[2],1200 nM
same,Activity,[1],53%
Brc1cn2ccnc2c(N2CCNCC2)n1,EC50,[2],1360 nM
same,Activity,[1],79%
c1ccc2c(N3CCNCC3)nccc2c1,IC50,[9],24 nM
c1nc(N2CCNCC2)c2sccc2n1,EC50,[2],400 nM
same,Activity,[1],81%
C[C@@H]1CNCCN1c1ccc2c(n1)[C@@H](Oc1ccccc1Cl)CC2,Ki,[10],0.6 nM
Clc1nc(N2CCNCC2)c2c3c(sc2n1)CCCC3,IC50,[9],710 nM
Clc1cccc(COc2nc(N3CCNCC3)nc3nc[nH]c23)c1,IC50,[9],410 nM
Clc1ccccc1O[C@H]1CCc2ccc(N3CCNCC3)nc21,EC50,[2],0.1 nM
same,EC50,[3],87 nM
same,Activity,[4],87%
same,EC50,[5],300 nM
same,Activity,[6],58%
same,Ki,[7],1 nM
same,Ki,[8]; cho,Not Active
same,Activity,[1],92%
Clc1ccccc1O[C@@H]1CCCc2ccc(N3CCNCC3)nc21,EC50,[2],120 nM
same,EC50,[3],578 nM
same,Activity,[4],76%
same,EC50,[5],998 nM
same,Ki,[7],2 nM
same,Ki,[8]; cho,Not Active
same,Activity,[1],95%
Clc1ccccc1O[C@@H]1CCc2ccc(N3CCNCC3)nc21,EC50,[2],22 nM
same,EC50,[3],1310 nM
same,Activity,[4],46%
same,EC50,[5],748 nM
same,Activity,[6],21%
same,Ki,[7],41 nM
same,Ki,[8]; cho,Not Active
same,Activity,[1],97%
CCCn1cnc2c(N3CCNCC3)ncnc21,EC50,[2],1250 nM
same,Activity,[1],55%
c1cc2sccc2c(N2CCNCC2)n1,EC50,[2],187 nM
same,Activity,[1],60%
c1nc(N2CCNCC2)c2ccsc2n1,EC50,[2],530 nM
same,Activity,[1],74%
Clc1nc(N2CCNCC2)nc2sccc12,EC50,[2],616 nM
same,Activity,[1],69%
c1cc2occc2c(N2CCNCC2)n1,EC50,[2],164 nM
same,Activity,[1],67%
Clc1cccc(COc2nc(N3CCNCC3)nc3ccsc23)c1,EC50,[2],2600 nM
same,Activity,[1],43%
COc1nc(N2CCNCC2)nc2c1CCCC2,EC50,[2],5000 nM
same,Activity,[1],53%
c1nc(N2CCNCC2)c2cc[nH]c2n1,EC50,[2],755 nM
same,Activity,[1],91%
